Data published in patent publication EP1161957A1, “Complex for transferring an anionic substance of interest into a cell” (TRANSGENE S.A., priority 2000, dated 2001).
Ends that are not written are not given here.

Tested on: B6SJL mice
Conditions: intravenous injection of pTG11236/peptide complexes, dead mice per group of five
Description: Indicated amounts of the luciferase expression plasmid pTG11236 were mixed with ppTG1 and /or pcTG90/DOPE. […] Muscles, tumors or organs were recovered at the indicated points of time, macerated and tested for luciferase activity with the luciferase assay kit from Promega.
After 20 min incubation at room temperature, the complexes were intravenously injected into B6SJL mice. Mice were sacrificed at day 1. The lungs were recovered, total protein was extracted and luciferase activity was analysed.
The potential of gene transfer with mono-component peptide vectors was investigated in vivo. […] Five mice per group were intravenously injected, the animals were sacrificed at day 1 after injection. Lungs were tested for luciferase activity.

For GLFRALLRLLRSLWRLLLRA [ppTG20], the toxicity was “less toxic than ppTG1”.
